In patent publication US10028508B2, “Use of active compound compositions” (BAYER CROPSCIENCE AKTIENGESELLSCHAFT, priority 2014, dated 2018):
Where two headings read alike, the source gives them in different places.

Tested on: Anopheles funestus metabolic-resistant strain FUMOZ-R
Test: Metabolic-Resistant Anopheles Test (mortality on treated tile, wood, concrete)
Type: in vivo
Conditions: for mortality at 12.5 mg/m2: Deltamethrin 12.5 mg/m2, read-out: Mortality Effect %; for mortality at 25 mg/m2: Deltamethrin 25 mg/m2, read-out: Mortality Effect %
Description: To produce a suitable preparation of active compound combination the active compounds deltamethrin and clothanidin were dissolved in acetone (for the control group only one active compound was dissolved in acetone). The active compound combination preparation (and the active compound preparations) were pipetted onto a glazed tile, wood and concrete and, after drying, adult mosquitoes of the species Anopheles funestus metabolic-resistant strain FUMOZ-R (Hunt et al., Med Vet Entomol. 2005 September; 19(3):271-5) are placed onto the treated tile, wood and concrete. The exposition time is 30 minutes.
1 hour, 2 hour, 4 hour, 24 hours after contact to the treated surface, the mortality proportion of the test animals in % is determined. Here, 100% means that all mosquitoes have been killed; 0% means that none of the mosquitoes has been killed. The treated tile, wood and concrete was stored under stress conditions (30° C./80% rh). Measurement with the treated tile, wood and concrete was repeated 5 weeks (Table 1), 11 weeks (Table 2) and 60 weeks (Table 3) after the treatment with the active compound combination.

[1] = 5 weeks after treatment, Concrete, 1 h after contact
[2] = 5 weeks after treatment, Concrete, 2 h after contact
[3] = 5 weeks after treatment, Concrete, 4 h after contact
[4] = 5 weeks after treatment, Concrete, 24 h after contact
[5] = 5 weeks after treatment, Tile, 1 h after contact
[6] = 5 weeks after treatment, Tile, 2 h after contact
[7] = 5 weeks after treatment, Tile, 4 h after contact
[8] = 5 weeks after treatment, Tile, 24 h after contact
[9] = 5 weeks after treatment, Wood, 1 h after contact
[10] = 5 weeks after treatment, Wood, 2 h after contact
[11] = 5 weeks after treatment, Wood, 4 h after contact
[12] = 5 weeks after treatment, Wood, 24 h after contact
[13] = 11 weeks after treatment, Concrete, 1 h after contact
[14] = 11 weeks after treatment, Concrete, 2 h after contact
[15] = 11 weeks after treatment, Concrete, 4 h after contact
[16] = 11 weeks after treatment, Concrete, 24 h after contact
[17] = 11 weeks after treatment, Tile, 1 h after contact
[18] = 11 weeks after treatment, Tile, 2 h after contact
[19] = 11 weeks after treatment, Tile, 4 h after contact
[20] = 11 weeks after treatment, Tile, 24 h after contact
[21] = 11 weeks after treatment, Wood, 1 h after contact
[22] = 11 weeks after treatment, Wood, 2 h after contact
[23] = 11 weeks after treatment, Wood, 4 h after contact
[24] = 11 weeks after treatment, Wood, 24 h after contact
[25] = 60 weeks after treatment, Concrete, 1 h after contact
[26] = 60 weeks after treatment, Concrete, 2 h after contact
[27] = 60 weeks after treatment, Concrete, 4 h after contact
[28] = 60 weeks after treatment, Concrete, 24 h after contact
[29] = 60 weeks after treatment, Tile, 1 h after contact
[30] = 60 weeks after treatment, Tile, 2 h after contact
[31] = 60 weeks after treatment, Tile, 4 h after contact
[32] = 60 weeks after treatment, Tile, 24 h after contact
[33] = 60 weeks after treatment, Wood, 1 h after contact
[34] = 60 weeks after treatment, Wood, 2 h after contact
[35] = 60 weeks after treatment, Wood, 4 h after contact
[36] = 60 weeks after treatment, Wood, 24 h after contact

**Q.** How did the mortality at 12.5 mg/m2 [1] turn out when `CC1(C)[C@H](C(=O)O[C@H](C#N)c2cccc(Oc3ccccc3)c2)[C@@H]1C=C(Br)Br` [Deltamethrin, deltamethrin] was run?
**A.** Its mortality at 12.5 mg/m2 is 70%.

**Q.** And the mortality at 25 mg/m2 [1]?
**A.** Its mortality at 25 mg/m2 is 90%.

**Q.** And the mortality at 12.5 mg/m2 [2]?
**A.** Its mortality at 12.5 mg/m2 is 87%.

**Q.** And the mortality at 25 mg/m2 [2]?
**A.** The mortality at 25 mg/m2 was 100%.

**Q.** And the mortality at 12.5 mg/m2 [3]?
**A.** The mortality at 12.5 mg/m2 was 100%.

**Q.** What about the mortality at 25 mg/m2 [3] of the same compound?
**A.** The mortality at 25 mg/m2 was 100%.

**Q.** What about the mortality at 12.5 mg/m2 [4] of the same compound?
**A.** Its mortality at 12.5 mg/m2 is 30%.

**Q.** And the mortality at 25 mg/m2 [4]?
**A.** Its mortality at 25 mg/m2 is 73%.

**Q.** What about the mortality at 12.5 mg/m2 [5] of the same compound?
**A.** The mortality at 12.5 mg/m2 was 17%.

**Q.** What about the mortality at 25 mg/m2 [5] of the same compound?
**A.** The mortality at 25 mg/m2 was 7%.

**Q.** What about the mortality at 12.5 mg/m2 [6] of the same compound?
**A.** The mortality at 12.5 mg/m2 was 77%.

**Q.** What about the mortality at 25 mg/m2 [6] of the same compound?
**A.** Its mortality at 25 mg/m2 is 83%.

**Q.** And the mortality at 12.5 mg/m2 [7]?
**A.** The mortality at 12.5 mg/m2 was 97%.

**Q.** What about the mortality at 25 mg/m2 [7] of the same compound?
**A.** The mortality at 25 mg/m2 was 100%.

**Q.** What about the mortality at 12.5 mg/m2 [8] of the same compound?
**A.** The mortality at 12.5 mg/m2 was 100%.

**Q.** And the mortality at 25 mg/m2 [8]?
**A.** The mortality at 25 mg/m2 was 93%.

**Q.** And the mortality at 12.5 mg/m2 [9]?
**A.** Its mortality at 12.5 mg/m2 is 10%.

**Q.** What about the mortality at 25 mg/m2 [9] of the same compound?
**A.** The mortality at 25 mg/m2 was 30%.

**Q.** And the mortality at 12.5 mg/m2 [10]?
**A.** Its mortality at 12.5 mg/m2 is 77%.

**Q.** And the mortality at 25 mg/m2 [10]?
**A.** The mortality at 25 mg/m2 was 90%.

**Q.** What about the mortality at 12.5 mg/m2 [11] of the same compound?
**A.** The mortality at 12.5 mg/m2 was 80%.

**Q.** What about the mortality at 25 mg/m2 [11] of the same compound?
**A.** The mortality at 25 mg/m2 was 93%.

**Q.** What about the mortality at 12.5 mg/m2 [12] of the same compound?
**A.** The mortality at 12.5 mg/m2 was 77%.

**Q.** And the mortality at 25 mg/m2 [12]?
**A.** Its mortality at 25 mg/m2 is 83%.

**Q.** What about the mortality at 12.5 mg/m2 [13] of the same compound?
**A.** The mortality at 12.5 mg/m2 was 3%.

**Q.** What about the mortality at 25 mg/m2 [13] of the same compound?
**A.** The mortality at 25 mg/m2 was 13%.

**Q.** What about the mortality at 12.5 mg/m2 [14] of the same compound?
**A.** The mortality at 12.5 mg/m2 was 0%.

**Q.** And the mortality at 25 mg/m2 [14]?
**A.** Its mortality at 25 mg/m2 is 43%.

**Q.** What about the mortality at 12.5 mg/m2 [15] of the same compound?
**A.** The mortality at 12.5 mg/m2 was 17%.

**Q.** And the mortality at 25 mg/m2 [15]?
**A.** Its mortality at 25 mg/m2 is 63%.

**Q.** What about the mortality at 12.5 mg/m2 [16] of the same compound?
**A.** The mortality at 12.5 mg/m2 was 30%.

**Q.** What about the mortality at 25 mg/m2 [16] of the same compound?
**A.** The mortality at 25 mg/m2 was 73%.

**Q.** What about the mortality at 12.5 mg/m2 [17] of the same compound?
**A.** The mortality at 12.5 mg/m2 was 0%.

**Q.** What about the mortality at 25 mg/m2 [17] of the same compound?
**A.** The mortality at 25 mg/m2 was 10%.

**Q.** And the mortality at 12.5 mg/m2 [18]?
**A.** Its mortality at 12.5 mg/m2 is 0%.

**Q.** And the mortality at 25 mg/m2 [18]?
**A.** Its mortality at 25 mg/m2 is 33%.

**Q.** What about the mortality at 12.5 mg/m2 [19] of the same compound?
**A.** Its mortality at 12.5 mg/m2 is 0%.

**Q.** And the mortality at 25 mg/m2 [19]?
**A.** Its mortality at 25 mg/m2 is 43%.

**Q.** What about the mortality at 12.5 mg/m2 [20] of the same compound?
**A.** The mortality at 12.5 mg/m2 was 3%.

**Q.** What about the mortality at 25 mg/m2 [20] of the same compound?
**A.** Its mortality at 25 mg/m2 is 63%.

**Q.** What about the mortality at 12.5 mg/m2 [21] of the same compound?
**A.** The mortality at 12.5 mg/m2 was 0%.

**Q.** And the mortality at 25 mg/m2 [21]?
**A.** The mortality at 25 mg/m2 was 0%.

**Q.** What about the mortality at 12.5 mg/m2 [22] of the same compound?
**A.** Its mortality at 12.5 mg/m2 is 0%.

**Q.** And the mortality at 25 mg/m2 [22]?
**A.** The mortality at 25 mg/m2 was 27%.

**Q.** What about the mortality at 12.5 mg/m2 [23] of the same compound?
**A.** Its mortality at 12.5 mg/m2 is 20%.

**Q.** And the mortality at 25 mg/m2 [23]?
**A.** Its mortality at 25 mg/m2 is 80%.

**Q.** And the mortality at 12.5 mg/m2 [24]?
**A.** The mortality at 12.5 mg/m2 was 13%.

**Q.** And the mortality at 25 mg/m2 [24]?
**A.** The mortality at 25 mg/m2 was 70%.

**Q.** And the mortality at 12.5 mg/m2 [25]?
**A.** The mortality at 12.5 mg/m2 was 0%.

**Q.** And the mortality at 25 mg/m2 [25]?
**A.** Its mortality at 25 mg/m2 is 0%.

**Q.** And the mortality at 12.5 mg/m2 [26]?
**A.** Its mortality at 12.5 mg/m2 is 0%.

**Q.** What about the mortality at 25 mg/m2 [26] of the same compound?
**A.** The mortality at 25 mg/m2 was 0%.

**Q.** And the mortality at 12.5 mg/m2 [27]?
**A.** Its mortality at 12.5 mg/m2 is 0%.

**Q.** What about the mortality at 25 mg/m2 [27] of the same compound?
**A.** Its mortality at 25 mg/m2 is 0%.

**Q.** What about the mortality at 12.5 mg/m2 [28] of the same compound?
**A.** The mortality at 12.5 mg/m2 was 13%.

**Q.** And the mortality at 25 mg/m2 [28]?
**A.** The mortality at 25 mg/m2 was 23%.

**Q.** What about the mortality at 12.5 mg/m2 [29] of the same compound?
**A.** Its mortality at 12.5 mg/m2 is 0%.

**Q.** And the mortality at 25 mg/m2 [29]?
**A.** The mortality at 25 mg/m2 was 0%.

**Q.** And the mortality at 12.5 mg/m2 [30]?
**A.** Its mortality at 12.5 mg/m2 is 0%.

**Q.** And the mortality at 25 mg/m2 [30]?
**A.** Its mortality at 25 mg/m2 is 7%.

**Q.** And the mortality at 12.5 mg/m2 [31]?
**A.** The mortality at 12.5 mg/m2 was 17%.

**Q.** And the mortality at 25 mg/m2 [31]?
**A.** Its mortality at 25 mg/m2 is 23%.

**Q.** And the mortality at 12.5 mg/m2 [32]?
**A.** Its mortality at 12.5 mg/m2 is 30%.

**Q.** What about the mortality at 25 mg/m2 [32] of the same compound?
**A.** The mortality at 25 mg/m2 was 53%.

**Q.** What about the mortality at 12.5 mg/m2 [33] of the same compound?
**A.** Its mortality at 12.5 mg/m2 is 0%.

**Q.** And the mortality at 25 mg/m2 [33]?
**A.** Its mortality at 25 mg/m2 is 0%.

**Q.** What about the mortality at 12.5 mg/m2 [34] of the same compound?
**A.** The mortality at 12.5 mg/m2 was 0%.

**Q.** And the mortality at 25 mg/m2 [34]?
**A.** Its mortality at 25 mg/m2 is 10%.

**Q.** And the mortality at 12.5 mg/m2 [35]?
**A.** Its mortality at 12.5 mg/m2 is 17%.

**Q.** And the mortality at 25 mg/m2 [35]?
**A.** The mortality at 25 mg/m2 was 37%.

**Q.** And the mortality at 12.5 mg/m2 [36]?
**A.** Its mortality at 12.5 mg/m2 is 43%.

**Q.** What about the mortality at 25 mg/m2 [36] of the same compound?
**A.** The mortality at 25 mg/m2 was 43%.
